Measured values taken from ChEMBL document CHEMBL1128991, “Trishomocubanes, a new class of selective and high affinity ligands for the sigma binding site” (Bioorg Med Chem Lett, 1996).

assay: Binding affinity towards NMDA receptor ion channel (PCP site) was determined

Ki	SMILES
> 10 µM	Ic1ccc(CNC2C3C4CC5C6C4C2C6C2(OCCO2)C53)cc1 (stereo unspecified)
> 10 µM	Brc1cccc(CNC2C3C4CC5C6C4C2C6C2(OCCO2)C53)c1 (stereo unspecified)
> 10 µM	Ic1cccc(CNC2C3C4CC5C6C4C2C6C2(OCCO2)C53)c1 (stereo unspecified)
> 10 µM	c1ccc(CNC2C3C4CC5C6C4C2C6C2(OCCO2)C53)cc1 (stereo unspecified)

SMILES	Ki
OC12C3C4CC5C6C4C1C6C(C53)N2Cc1cccc(Br)c1 (stereo unspecified)	> 10 µM
OC12C3C4CC5C6C4C1C6C(C53)N2Cc1ccccc1 (stereo unspecified)	> 10 µM
